Reference: patent publication US9045525B2, “Amyloid β-protein-specific production-inhibiting polypeptide” (THE DOSHISHA, priority 2012, dated 2015)
Peptide text beside a SMILES is read from it.

How the values were obtained:
[1] = Intraperitoneal administration of FITC-modified polypeptide, localization around the hippocampus; assay type: in vivo; conditions: FITC-modified #4 polypeptide, 150 mg/kg intraperitoneally, three consecutive days, mouse
Method: Subsequently, FITC-modified #4 polypeptide prepared by using a known method was intraperitoneally administered to a mouse. The dose was 150 mg/kg, and the administration was conducted for three consecutive days. Four days after, the mice were euthanized to prepare test pieces of tissue around the hippocampus. As the negative control experiment, DMSO was administered in place of FITC-modified #4 polypeptide.
In the figure, “CPLV” indicates the area called the “choroid plex” for producing cerebrospinal fluid.

[2] = molecular target: β-secretase against APP (APP-EQ-FLAG) (Homo sapiens, UniProt P05067); test: β-Secretase activity inhibition experiment in vitro, APP-EQ-FLAG substrate; assay type: biochemical
β-secretase against APP (APP-EQ-FLAG), sequence (P05067 with tags, fused parts or gaps): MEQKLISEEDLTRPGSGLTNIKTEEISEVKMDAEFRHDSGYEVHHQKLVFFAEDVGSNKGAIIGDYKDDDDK
Method: A solution containing the polypeptide having APP (APP-EQ-FLAG: SEQ ID NO: 18) as shown in FIG. 5(A) was prepared in such a manner that its final concentration was 50 nM.
To this solution, 9-7 polypeptide, 6-5 polypeptide, #1 polypeptide, #2 polypeptide, #3 polypeptide, #4 polypeptide, #5 polypeptide, #6 polypeptide, #7 polypeptide, #8 polypeptide, #9 polypeptide, and #10 polypeptide were added in such a manner that each solution had the final concentration of 50 μM, followed by reacting with 50 μL β-secretase (0.02 U/μL) for 4 hours. The reaction temperature was 37° C. As a negative control experiment, DMSO was used in place of the 12 types of polypeptides mentioned above.
After completion of the reaction, each sample was subjected to Western blotting using a monoclonal antibody (82E-1) that specifically recognizes the N terminal of APP-EQ-FLAG as shown in FIG. 5(A). Thereafter, the amount of Aβ33-FLAG protein separated by β-secretase was measured.
An experiment was conducted in the same manner as Experimental Example 4 described above except that S4 and #4 polypeptides were used as the polypeptide and the amounts of these polypeptides added were adjusted so that the final concentrations were 1, 5, 10, 20, 50, and 100 μM.

Q: Which “presence of polypeptide in CA1 region (fluorescent microscopy)” value [1] does the source give for CC[C@H](C)[C@H](NC(=O)[C@H](CC(=O)O)NC(=O)[C@@H](NC(=O)[C@@H](NC(=O)[C@H](CS)NC(=O)[C@H](Cc1ccc(O)cc1)NC(=O)[C@H](CS)NC(=O)[C@H](CC(=O)O)NC(=O)[C@H](CS)NC(=O)[C@@H](NC(=O)[C@@H](NC(=O)[C@H](CC(C)C)NC(=O)[C@H](Cc1c[nH]cn1)NC(=O)[C@H](CCSC)NC(C)=O)C(C)C)[C@@H](C)CC)[C@@H](C)O)[C@@H](C)O)C(=O)N[C@@H](CS)C(=O)N[C@@H](Cc1ccc(O)cc1)C(=O)N[C@@H](CS)C(=O)N[C@@H](Cc1ccc(O)cc1)C(=O)N[C@@H](CO)C(=O)N[C@@H](CS)C(=O)N[C@H](C(=O)N1CCC[C@H]1C(=O)N[C@@H](CC(N)=O)C(N)=O)[C@@H](C)O [#4] (Ac-MHLVICDCYCTTDICYCYSCTPN-NH2) here?
A: a portion dyed green indicating the presence of #4 polypeptide was confirmed

Q: What about the “presence of polypeptide in choroid plex (CPLV)” value [1] of the same compound?
A: a portion dyed green indicating the presence of #4 polypeptide was confirmed in the blood vessel

Q: What about the “presence of polypeptide in dentate gyrus (DG)” value [1] of the same compound?
A: a portion dyed green indicating the presence of #4 polypeptide was also confirmed

Q: What about the “cleavage activity of β-secretase against APP (Aβ33-FLAG)” value ([2]; polypeptide 50 μM, 4 hours, 37° C., Western blotting) of the same compound?
A: inhibit the cleavage activity of β-secretase against APP more intensely

Q: And the “cleavage activity of β-secretase against APP” value ([2]; polypeptide 1, 5, 10, 20, 50, and 100 μM)?
A: inhibited the cleavage activity of β-secretase against APP in a concentration-dependent manner
